Measurements taken from PMC11855827, “High-Throughput Screening of Five Compound Libraries for Anthelmintic Activity and Toxicity Leads to the Discovery of Two Flavonoid Compounds” (International Journal of Molecular Sciences, 2025).
“And” between values parts separate entries of the source, which are not always exact repeats. Equal entries are not always repeated.

Tested on: C. elegans
Conditions: Table S2, C. elegans SS assay, 110 μM, averages of 4 data points

| Molecule | Percentage of motility inhibition 0 h [%] | Percentage of motility inhibition 24 h |
| --- | --- | --- |
| CC(C)CN(C[C@@H](O)[C@H](Cc1ccccc1)NC(=O)O[C@H]1CO[C@H]2OCC[C@H]21)S(=O)(=O)c1ccc(N)cc1.CCO [Darunavir (Ethanolate)] | 14 | 10% |
| CC(C)=C[C@H]1C[C@](C)(O)[C@@H]2[C@H]3CC[C@@H]4[C@@]5(C)CC[C@H](O[C@@H]6OC[C@H](O)[C@H](O[C@@H]7O[C@H](CO)[C@@H](O)[C@H](O)[C@H]7O[C@@H]7OC[C@@H](O)[C@H](O)[C@H]7O)[C@H]6O[C@@H]6O[C@@H](C)[C@H](O)[C@@H](O)[C@H]6O)C(C)(C)[C@@H]5CC[C@@]4(C)[C@@]34CO[C@@]2(C4)O1 [Jujuboside B] | 0 | 0% |
| CC(/C=C/C=C(\C)C(=O)[O-])=C\C=C\C=C(C)\C=C\C=C(/C)C(=O)[O-].[Na+].[Na+] [Crocetin (disodium)] | 0 | 5% |
| Cc1c(O)c(C)c2c(c1O)C(=O)[C@H](Cc1ccc3c(c1)OCO3)CO2 [Methylophiopogonanone A] | 21 | 0% |
| CC[C@@]1(O)C(=O)OCc2c1cc1n(c2=O)Cc2cc3c(OC)cccc3nc2-1 [9‐Methoxycamptothecin] | 22 | 0% |
| CC(C)=CCC[C@@H](C)CCO [(R)-Citronellol] | 1 | 14% |
| CO/N=C(\C(=O)N[C@@H]1C(=O)N2C(C(=O)OCOC(=O)C(C)(C)C)=C(/C=C\c3scnc3C)CS[C@H]12)c1csc(N)n1 [Cefditoren (Pivoxil)] | 36 | 1% |
| CC(C)=CCC[C@](C)(O)[C@H]1CC[C@]2(C)[C@@H]1[C@H](O)C[C@@H]1[C@@]3(C)C[C@@H](O)[C@H](O[C@@H]4O[C@H](CO)[C@@H](O)[C@H](O)[C@H]4O[C@@H]4O[C@H](CO)[C@@H](O)[C@H](O)[C@H]4O)C(C)(C)[C@@H]3CC[C@]12C [Gypenoside L] | 22 | 15% |
| C[C@H](CC[C@@H](O[C@@H]1O[C@H](CO)[C@@H](O)[C@H](O)[C@H]1O)C(C)(C)O)[C@H]1CC[C@@]2(C)[C@@H]3CC=C4[C@@H](CC[C@H](O[C@@H]5O[C@H](CO)[C@@H](O)[C@H](O)[C@H]5O)C4(C)C)[C@]3(C)[C@H](O)C[C@]12C [Mogroside IIe] | 0 | 7% |
| C[C@H](CC[C@@H](O[C@@H]1O[C@H](CO[C@@H]2O[C@H](CO)[C@@H](O)[C@H](O)[C@H]2O)[C@@H](O)[C@H](O)[C@H]1O[C@@H]1O[C@H](CO)[C@@H](O)[C@H](O)[C@H]1O)C(C)(C)O)[C@H]1CC[C@@]2(C)[C@@H]3CC=C4[C@@H](CC[C@H](O[C@@H]5O[C@H](CO[C@@H]6O[C@H](CO)[C@@H](O)[C@H](O)[C@H]6O)[C@@H](O)[C@H](O)[C@H]5O)C4(C)C)[C@]3(C)C(=O)C[C@]12C [11-oxo-mogroside V] | 3 | 24% |
| C[C@@H]1CC[C@]2(C(=O)O[C@@H]3O[C@H](CO)[C@@H](O)[C@H](O)[C@H]3O)CC[C@]3(C)C(=CC[C@@H]4[C@@]5(C)C[C@@H](O)[C@H](O)C(C)(C)[C@@H]5CC[C@]43C)[C@@H]2[C@]1(C)O [Rosamultin] | 21 | 1% |
| O=c1cc(-c2ccccc2)oc2cc(O[C@@H]3O[C@H](CO)[C@@H](O)[C@H](O)[C@H]3O)c(O)c(O)c12 [Oroxin A] | 0 | 1% |
| CC1(C)CC[C@]2(C(=O)O)CCC3=C([C@@H](CCl)C[C@@H]4[C@@]5(C)C[C@H](O)[C@H](O)[C@@](C)(C(=O)O)[C@@H]5CC[C@@]34C)[C@@H]2C1 [Tenuigenin] | 11 | 11% |
| COc1ccc(-c2coc3cc(O[C@@H]4O[C@H](CO)[C@@H](O)[C@H](O)[C@H]4O)c(OC)c(O)c3c2=O)cc1O [Iristectorin A] | 0 | 2% |
| C=C1CC[C@@H]2[C@](C)(CO)[C@H](O)CC[C@]2(C)[C@@H]1/C=C/C1=CCOC1=O [14-Deoxy-11,12-didehydroandrographolide] | 0 | 6% |
| CC1=COC(=O)[C@H]2[C@@H]1CC[C@@H]2C [4aα,7α,7aα-Nepetalactone] | 17 | 16% |
| CC(=O)O[C@@]12CO[C@@H]1C[C@H](O)[C@@]1(C)C(=O)[C@H](O)C3=C(C)[C@@H](O)C[C@@](O)([C@@H](OC(=O)c4ccccc4)[C@H]21)C3(C)C [10-Deacetylbaccatin III] | 4 | 5% |
| CC1(C)CC[C@]2(C(=O)O)CC[C@]3(C)C(=CC[C@@H]4[C@@]5(C)CC[C@H](O[C@@H]6O[C@H](C(=O)O)[C@@H](O)[C@H](O)[C@H]6O)C(C)(C)[C@@H]5CC[C@]43C)[C@@H]2C1 [Calenduloside E] | 0 | 0% |
| COc1c(-c2ccccc2)oc2cc(O)cc(O)c2c1=O [3‐O‐Methylgalangin] | 0 | 4% |
| CC/C=C\CC1=C(C)CCC1=O [cis‐Jasmone] | 10 | 9% |

| Molecule | Percentage of motility inhibition 0 h [%] | Percentage of motility inhibition 24 h |
| --- | --- | --- |
| Hydrastinine (hydrochloride) | 7 | 0% |
| C/C=C(/C)C(=O)O[C@H]1C(C)=C[C@]23C(=O)[C@@H](C=C4COC(C)(C)O[C@H]4[C@]12O)[C@H]1[C@@H](C[C@H]3C)C1(C)C [Ingenol-5,20-acetonide-3-O-angelate] | 0 | 0% |
| COc1cc(OC)c2c(=O)cc(-c3ccc(O)c(O)c3)oc2c1 [5,7‐Dimethoxyluteolin] | 24 | 13% |
| O=C1Cc2cc(O)ccc2N1 [5‐Hydroxyoxindole] | 15 | 10% |
| C[C@@H]1CC[C@]2(C(=O)O)CC[C@]3(C)C(=CC[C@@H]4[C@@]5(C)CC[C@H](O[C@@H]6OC[C@H](O)[C@H](O)[C@H]6O)C(C)(C)[C@@H]5CC[C@]43C)[C@@H]2[C@]1(C)O [Ziyuglycoside II] | 11 | 14% |
| C[C@H]1O[C@@H](O[C@H]2CC[C@@]3(C)[C@@H](CC[C@]4(C)[C@@H]3C=C[C@]35OC[C@@]6(CCC(C)(C)C[C@H]63)[C@H](O)C[C@]54C)[C@]2(C)CO)[C@H](O)[C@@H](O[C@@H]2O[C@H](CO)[C@@H](O)[C@H](O)[C@H]2O)[C@H]1O [Saikosaponin D] | 34 | 52% |
| COC(=O)[C@]12CCC(C)(C)C[C@H]1C1=CC[C@@H]3[C@@]4(C)CCC(=O)C(C)(C)[C@@H]4CC[C@@]3(C)[C@]1(C)CC2 [Methyl oleanonate] | 4 | 1% |
| COc1ccc([C@@H]2CC(=O)c3c(O)cc(O[C@@H]4O[C@H](CO)[C@@H](O)[C@H](O)[C@H]4O)cc3O2)cc1O [Hesperetin 7‐O‐glucoside] | 16 | 14% |
| NC(=O)c1cccnc1 [Nicotinamide] | – | 0% and 10% |
| Phillyrin | 0 | 0% |
| CC(C)Nc1cccnc1N1CCN(C(=O)c2cc3cc(NS(C)(=O)=O)ccc3[nH]2)CC1.CS(=O)(=O)O [Delavirdine (mesylate)] | 22 | 16% |
| C=C1[C@H](CO)[C@@H](O)C[C@@H]1n1cnc2c(=O)[nH]c(N)nc21.O [Entecavir (monohydrate)] | 18 | 3% |
| CC1(C)CC[C@]2(C(=O)O[C@@H]3O[C@H](CO)[C@@H](O)[C@H](O)[C@H]3O)CC[C@]3(C)C(=CC[C@@H]4[C@@]5(C)CC[C@H](O[C@@H]6O[C@H](C(=O)O)[C@@H](O[C@@H]7O[C@@H](CO)[C@H](O)[C@H]7O)[C@H](O)[C@H]6O)C(C)(C)[C@@H]5CC[C@]43C)[C@@H]2C1 [Araloside A] | 6 | 0% |
| CCC(CC)O[C@@H]1C=C(C(=O)O)C[C@H](N)[C@H]1NC(C)=O [Oseltamivir (acid)] | 18 | 8% |
| CC(C)C[C@H]1C(=O)O[C@H](Cc2ccc(N3CCOCC3)cc2)C(=O)N(C)[C@@H](CC(C)C)C(=O)O[C@H](C)C(=O)N(C)[C@@H](CC(C)C)C(=O)O[C@H](Cc2ccc(N3CCOCC3)cc2)C(=O)N(C)[C@@H](CC(C)C)C(=O)O[C@H](C)C(=O)N1C [Emodepside] | 69 | 47% |
| COc1cc(OC)c2c(=O)c(OC)c(-c3ccc(OC)c(OC)c3)oc2c1 [3,5,7,3′,4′‐Pentamethoxyflavone] | 2 | 24% |
| (‐)‐Alkannin | 12 | 7% |
| C=CCCCCCCCCC(=O)[O-].C=CCCCCCCCCC(=O)[O-].[Zn+2] [10‐Undecenoic acid (zinc salt)] | 43 | 35% |
| C[C@H](CC[C@@H](O[C@@H]1O[C@H](CO[C@@H]2O[C@H](CO)[C@@H](O)[C@H](O)[C@H]2O)[C@@H](O)[C@H](O)[C@H]1O)C(C)(C)O)[C@H]1CC[C@@]2(C)[C@@H]3CC=C4[C@@H](CC[C@H](O[C@@H]5O[C@H](CO)[C@@H](O)[C@H](O)[C@H]5O)C4(C)C)[C@]3(C)[C@H](O)C[C@]12C [Mogroside III] | 7 | 3% |
| CC1(C)[C@H]2O[C@H]2[C@H]2[C@](C)(O)[C@@H]3CC[C@@H]4[C@@H](O)[C@@]3(C[C@@H](O)[C@@]21O)C[C@@]4(C)O [Rhodojaponin III] | 5 | 2% |
